Results published in US7084128B2, “Method for reducing intraocular pressure” (Inspire Pharmaceuticals, Inc., priority 2002, dated 2006).

Tests used:
[1] = system: intraocular pressure; settings: literature (Peral et al. 2000; Pintor et al. 2000); cited from earlier work
[2] = system: intraocular pressure (IOP); settings: New Zealand white rabbits; for time of maximal reduction in IOP: 0.25 mM topical single dose, IOP measured at 0.5, 1, 2 and 5 hours after application; for maximal reduction in IOP: 10 microliters of 0.25 mM in 0.9% saline, topical, unilateral, single dose, at time of maximal effect, n=4
Description: The actions of 2′-(O)-, 3′-(O)-(benzyl)methylenedioxy-adenosine-5′-triphosphate (Compound 1) and 2′-(O)-, 3′-(O)-(benzyl)methylenedioxy-2″-(O)-,3″-(O)-benzyl methylenedioxy-P^1, P^4-di(adenosine 5′-)tetraphosphate (Compound 2) on intraocular pressure (IOP) were assessed in New Zealand white rabbits.
Intraocular pressure measurements: IOP was measured using a TONOPEN contact tonometer supplied by MENTOR (USA). Ten microliters of the agents were applied topically and unilaterally to the cornea, whereas the contralateral eye received the same volume of saline solution. The corneas were anesthetized to avoid any discomfort associated with the use of the tonometer. Two measurements were made before application of the agents.
Pharmacological studies: Compounds were prepared at a concentration of 0.25 mM in 0.9% saline and intraocular pressure was measured at 0.5, 1, 2, and 5 hours after the application. A single dose was tested in a single animal on a single day.

Compound	effect on intraocular pressure in rabbits [1]	time of maximal reduction in IOP [2] [h]	maximal reduction in IOP [2] [%]
Nc1ncnc2c1ncn2[C@@H]1O[C@H](COP(=O)(O)OP(=O)(O)OP(=O)(O)OP(=O)(O)OC[C@H]2O[C@@H](n3cnc4c(N)ncnc43)[C@H](O)[C@@H]2O)[C@@H](O)[C@H]1O [Diadenosine tetraphosphate]	lower intraocular pressure		
2′-(O)-, 3′-(O)-(benzyl)methylenedioxy-adenosine-5′-triphosphate [Compound 1]		1 to 2	21
Nc1ncnc2c1ncn2[C@@H]1O[C@H](COP(=O)(O)OP(=O)(O)CP(=O)(O)O)[C@@H](O)[C@H]1O [beta, gamma methylene adenosine triphosphate]	reduce intraocular pressure		
Nc1ncnc2c1ncn2[C@@H]1O[C@H](COP(=O)(O)CP(=O)(O)OP(=O)(O)O)[C@@H](O)[C@H]1O [Alpha, Beta-Methylene adenosine triphosphate]	reduce intraocular pressure		
Nc1ncnc2c1ncn2[C@@H]1O[C@H](COP(=O)(O)OP(=O)(O)OP(=O)(O)OP(=O)(O)OC[C@H]2O[C@@H](n3cnc4c(N)ncnc43)[C@@H]3OC(Cc4ccccc4)O[C@@H]32)[C@H]2OC(Cc3ccccc3)O[C@H]21 (stereo partly shown) [Compound 2, 2′-(O)-, 3′-(O)-(benzyl)methylenedioxy-2″-(O)-,3″-(O)-benzyl methylenedioxy-P^1, P^4-di(adenosine 5′-)tetraphosphate]		1	22
